Laboratory results reported in paper PMC10066365, “Nemacol is a small molecule inhibitor of C. elegans vesicular acetylcholine transporter with anthelmintic potential” (Nature Communications, 2023).
Several values for one entry are separate records, joined by “and”; a condition that tells them apart may be missing. Equal values may be shown once.

Key:
C. elegans = experiment: Suppression of trichlorfon (AChE inhibitor) paralysis, double dose-response, scored after 80 min; assay type: in vivo, Caenorhabditis elegans; conditions: wild-type, bio rep 1-3
HEK293 cells = conditions: cited from earlier work

O[C@@H]1CCCC[C@H]1N1CCC(c2ccccc2)CC1 (racemic) [vesamicol, reference compound]
% para (percentage of animals able to adopt a clear sinusoidal wave pattern upon touch on the nose) (C. elegans; vesamicol 31.75 uM + trichlorfon 0 uM): 96.4286% and 100%
% para (percentage of animals able to adopt a clear sinusoidal wave pattern upon touch on the nose) (C. elegans; vesamicol 31.75 uM + trichlorfon 25 uM): 92.8571% and 96.4286% and 100%
% para (percentage of animals able to adopt a clear sinusoidal wave pattern upon touch on the nose) (C. elegans; vesamicol 31.75 uM + trichlorfon 50 uM): 82.1429% and 71.4286% and 96.4286%
% para (percentage of animals able to adopt a clear sinusoidal wave pattern upon touch on the nose) (C. elegans; vesamicol 31.75 uM + trichlorfon 100 uM): 64.2857% and 53.5714% and 42.8571%
% para (percentage of animals able to adopt a clear sinusoidal wave pattern upon touch on the nose) (C. elegans; vesamicol 31.75 uM + trichlorfon 400 uM): 0%
% para (percentage of animals able to adopt a clear sinusoidal wave pattern upon touch on the nose) (C. elegans; vesamicol 31.75 uM + trichlorfon 800 uM): 0%
% para (percentage of animals able to adopt a clear sinusoidal wave pattern upon touch on the nose) (C. elegans; vesamicol 62.5 uM + trichlorfon 0 uM): 100%
% para (percentage of animals able to adopt a clear sinusoidal wave pattern upon touch on the nose) (C. elegans; vesamicol 62.5 uM + trichlorfon 25 uM): 92.8571% and 100%
% para (percentage of animals able to adopt a clear sinusoidal wave pattern upon touch on the nose) (C. elegans; vesamicol 62.5 uM + trichlorfon 50 uM): 89.2857% and 85.7143% and 96.4286%
% para (percentage of animals able to adopt a clear sinusoidal wave pattern upon touch on the nose) (C. elegans; vesamicol 62.5 uM + trichlorfon 100 uM): 67.8571% and 64.2857% and 53.5714%
% para (percentage of animals able to adopt a clear sinusoidal wave pattern upon touch on the nose) (C. elegans; vesamicol 62.5 uM + trichlorfon 400 uM): 0% and 3.571%
% para (percentage of animals able to adopt a clear sinusoidal wave pattern upon touch on the nose) (C. elegans; vesamicol 62.5 uM + trichlorfon 800 uM): 0%
% para (percentage of animals able to adopt a clear sinusoidal wave pattern upon touch on the nose) (C. elegans; vesamicol 125 uM + trichlorfon 0 uM): 100%
% para (percentage of animals able to adopt a clear sinusoidal wave pattern upon touch on the nose) (C. elegans; vesamicol 125 uM + trichlorfon 25 uM): 96.4286% and 100%
% para (percentage of animals able to adopt a clear sinusoidal wave pattern upon touch on the nose) (C. elegans; vesamicol 125 uM + trichlorfon 50 uM): 96.4286% and 78.5714% and 92.8571%
% para (percentage of animals able to adopt a clear sinusoidal wave pattern upon touch on the nose) (C. elegans; vesamicol 125 uM + trichlorfon 100 uM): 85.7143% and 67.8571% and 60.7143%
% para (percentage of animals able to adopt a clear sinusoidal wave pattern upon touch on the nose) (C. elegans; vesamicol 125 uM + trichlorfon 800 uM): 0%
% para (percentage of animals able to adopt a clear sinusoidal wave pattern upon touch on the nose) (C. elegans; vesamicol 250 uM + trichlorfon 0 uM): 96.4286% and 100%
% para (percentage of animals able to adopt a clear sinusoidal wave pattern upon touch on the nose) (C. elegans; vesamicol 250 uM + trichlorfon 25 uM): 100% and 96.4286%
% para (percentage of animals able to adopt a clear sinusoidal wave pattern upon touch on the nose) (C. elegans; vesamicol 250 uM + trichlorfon 50 uM): 96.4286% and 89.2857% and 100%
% para (percentage of animals able to adopt a clear sinusoidal wave pattern upon touch on the nose) (C. elegans; vesamicol 250 uM + trichlorfon 100 uM): 75% and 78.5714%
% para (percentage of animals able to adopt a clear sinusoidal wave pattern upon touch on the nose) (C. elegans; vesamicol 250 uM + trichlorfon 800 uM): 0%
% para (percentage of animals able to adopt a clear sinusoidal wave pattern upon touch on the nose) (C. elegans; vesamicol 500 uM + trichlorfon 0 uM): 100%
% para (percentage of animals able to adopt a clear sinusoidal wave pattern upon touch on the nose) (C. elegans; vesamicol 500 uM + trichlorfon 25 uM): 100% and 92.8571% and 96.4286%
% para (percentage of animals able to adopt a clear sinusoidal wave pattern upon touch on the nose) (C. elegans; vesamicol 500 uM + trichlorfon 50 uM): 89.2857% and 96.4286% and 78.5714%
% para (percentage of animals able to adopt a clear sinusoidal wave pattern upon touch on the nose) (C. elegans; vesamicol 500 uM + trichlorfon 100 uM): 82.1429% and 85.7143%
% para (percentage of animals able to adopt a clear sinusoidal wave pattern upon touch on the nose) (C. elegans; vesamicol 500 uM + trichlorfon 200 uM): 42.8571% and 50% and 71.4286%
% para (percentage of animals able to adopt a clear sinusoidal wave pattern upon touch on the nose) (C. elegans; vesamicol 500 uM + trichlorfon 800 uM): 0%

CCC1CCC(N2CCN(c3ccc([N+](=O)[O-])cc3)CC2)CC1 (stereo not drawn) [Nemacol-2]
result in previous counter-screens (HEK293 cells): adverse effects
activity in preliminary HEK293 cell-based assays (HEK293 cells; ref Burns et al., 2015): higher activity
